Test system: MeV-Alaska
Experiment: Viral CPE-reduction assay
Details: Measles morbillivirus, read-out: EC50, suppression of viral cytopathic effect (CPE), CPE
Protocol: To rapidly pre-screen small libraries of compound analogs for antiviral activity, Vero-SLAM cells were infected with MeV-Alaska in four replicates per compound concentration in a 96-well plate format at an MOI of 0.4 pfu/cell in the presence of the inhibitor analyzed ranging from 75 μM to 293 nM in two-fold dilutions. At 96 hours post-infection, cell monolayers were subjected to crystal violet staining (0.1% crystal violet in 20% ethanol), and the absorbance of dried plates at 560 nm determined. Virus-induced cytopathicity was then calculated according to the formula [% rel. CPE=100-(experimental-minimum)/(maximum-minimum)*100], with minimum referring to infected, vehicle-treated wells and maximum to mock-infected wells.

SMILES | EC50
Cc1ccc(NC(=O)C(C)Sc2nc3ccccc3n2CC2CCN(C(=O)OC(C)(C)C)CC2)c(Cl)c1 (stereo not shown) | 1.31 µM
Cc1ccc(NC(=O)C(C)Sc2nc3ccccc3n2CC2CCNCC2)c(Cl)c1 (stereo not shown) | > 75 µM
Cc1ccc(NC(=O)C(C)Sc2nc3ccccc3n2N2CCN(C)CC2)c(Cl)c1 (stereo not shown) | > 75 µM
CC(Sc1nc2ccccc2n1-c1ccc(CC=O)cc1)C(=O)Nc1ccccc1Cl (stereo not shown) | 18.8 µM
Cc1ccc(NC(=O)C(C)Sc2nc3ccccc3n2-c2ccccc2CO)c(Cl)c1 (stereo not shown) | 0.8 µM
COc1ccc(-n2c(SC(CCO)C(=O)Nc3ccccc3)nc3ccccc32)cc1 (stereo not shown) | 27.8 µM
CC(Sc1nc2ccccc2n1-c1ccc(CCO)cc1)C(=O)Nc1ccccc1Cl (stereo not shown) | 4.68 µM
Cc1ccc(NC(=O)C(C)Sc2nc3ccccc3n2-c2ccc(CCNCCN3CCOCC3)cc2)c(Cl)c1 (stereo not shown) | 1.91 µM
Cc1ccc(NC(=O)C(C)Sc2nc3ccccc3n2-c2ccc(CCNC3CCN(C(=O)OC(C)(C)C)CC3)cc2)c(Cl)c1 (stereo not shown) | 4.68 µM
Cc1ccc(NC(=O)C(C)Sc2nc3ccccc3n2C2CCCN(CCO)C2)c(Cl)c1 (stereo not shown) | 10 µM
COCCN1CCCC(n2c(SC(C)C(=O)Nc3ccc(C)cc3Cl)nc3ccccc32)C1 (stereo not shown) | 1 µM

Test system: MeV-Alaska
Experiment: Antiviral activity of compound analogs against MeV-Alaska (tables 1-5)
Format: cell-based, measles virus
Details: Measles morbillivirus; Table 5

SMILES | EC50
Cc1ccc(NC(=O)C(C)Sc2nc(-c3ccccc3)c(-c3ccccc3)n2Cc2ccc(F)cc2)c(Cl)c1 (stereo not shown) [Compound 128] | > 75 µM
Cc1ccc(NC(=O)C(C)Sc2nc3cc(C)c(C)cc3n2Cc2ccc(F)cc2)c(Cl)c1 (stereo not shown) [Compound 129] | 2.1 µM
Cc1ccc(NC(=O)C(C)Sc2nc3ccccc3s2)c(Cl)c1 (stereo not shown) [Compound 130] | > 75 µM
CCC(Sc1nc2ccccc2n1-c1ccc(OC)cc1)C(=O)Nc1ncc(Cl)cc1Cl (stereo not shown) [Compound 131] | 12.2 µM
COc1ccc(-n2ccnc2SC(C)C(=O)Nc2ncc(Cl)cc2Cl)cc1 (stereo not shown) [Compound 132] | > 75 µM
Cc1cc2nc(SC(C)C(=O)Nc3ncc(Cl)cc3Cl)[nH]c2cc1C (stereo not shown) [Compound 133] | > 75 µM
CCOC(=O)c1ccc2c(c1)nc(SC(C)C(=O)N(Cc1ccc(OC)cc1)c1ncc(Cl)cc1Cl)n2Cc1ccc(OC)cc1 (stereo not shown) [Compound 134] | > 75 µM
COc1ccc(-n2c(CCC(=O)Nc3ncc(C)cc3Cl)nc3ccccc32)cc1 [Compound 135] | > 75 µM
COc1ccc(Cn2c(CC(C)NC(=O)c3ccc(Cl)cc3Cl)nc3ccccc32)cc1 (stereo not shown) [Compound 136] | > 75 µM
COc1ccc(Cn2c(CCC(=O)Nc3ccc(C)cc3Cl)nc3ccccc32)cc1 [Compound 137] | > 75 µM
Cc1ccc(NC(=O)/C=C\c2nc3ccccc3n2-c2ccccc2)c(Cl)c1 [Compound 138] | > 50 µM
COc1ccc(-n2c(S(=O)(=O)C(C)C(=O)Nc3ccccc3)nc3ccccc32)cc1 (stereo not shown) [Compound 139] | > 75 µM
COc1ccc(-n2c(SCC(=O)Nc3ccc(C)cc3Cl)nc3ccccc32)cc1 [Compound 140] | 1.05 µM
COc1ccc(-n2c(S(=O)(=O)CC(=O)Nc3ccc(C)cc3Cl)nc3ccccc32)cc1 [Compound 141] | > 75 µM
Cc1ccc(NC(=O)CSc2nc(-c3ccccc3)c(-c3ccccc3)[nH]2)c(Cl)c1 [Compound 142] | > 75 µM
Cc1ccc(N(Cc2ccc(F)cc2)C(=O)CSc2nc(-c3ccccc3)c(-c3ccccc3)n2Cc2ccc(F)cc2)c(Cl)c1 [Compound 143] | > 75 µM
Cc1ccc(NC(=O)CSc2nc3cc(C)c(C)cc3n2Cc2ccc(F)cc2)c(Cl)c1 [Compound 144] | > 75 µM
Cc1ccc(-n2c(SC(C)(C)C(=O)Nc3ccc(C)cc3Cl)nc3ccccc32)cc1 [Compound 145] | > 75 µM
Cc1ccc(NC(=O)C(C)Sc2nc3cccnc3n2-c2ccccc2)c(Cl)c1 (stereo not shown) [Compound 146] | 1.2 µM
Cc1ccc(NC(=O)CSc2nc3cccnc3n2-c2ccccc2)c(Cl)c1 [Compound 147] | 16 µM
Cc1ccc(NC(=O)C(C)Sc2nc3ccccc3n2Cc2ccccc2)c(Cl)c1 (stereo not shown) [Compound 148] | > 75 µM
COc1ccc(-n2c(SC(C)C(=O)N(C)c3ccc(Cl)cc3Cl)nc3ccccc32)cc1 (stereo not shown) [Compound 149] | > 75 µM
COc1ccc(-n2c(S(=O)(=O)C(C)C(=O)Nc3ccc(C)cc3Cl)nc3ccccc32)cc1 (stereo not shown) [Compound 150] | > 150 µM

SMILES | EC50
Cc1ccc(NC(=O)C(C)Sc2nc3ccccc3o2)c(Cl)c1 (stereo not shown) [Compound 151] | > 75 µM
Cc1ccc(NC(=O)C(C)Sc2nc(-c3ccccc3)c(-c3ccccc3)[nH]2)c(Cl)c1 (stereo not shown) [Compound 152] | > 75 µM
C#CCn1c(SC(C)C(=O)Nc2ccc(C)cc2Cl)nc(-c2ccccc2)c1-c1ccccc1 (stereo not shown) [Compound 153] | > 75 µM
COc1ccc(-n2c(SC(C)C(=O)Nc3ccc(C)cc3Cl)nc3cccnc32)cc1 (stereo not shown) [Compound 154] | 1.6 µM
COc1ccc(-n2c(SCC(=O)Nc3ncc(Cl)cc3Cl)nc3ccccc32)cc1 [Compound 155] | 0.44 µM
O=C(CSc1nc2ccccc2n1-c1ccc(F)cc1)Nc1ncc(Cl)cc1Cl [Compound 156] | 1.8 µM
Cc1cc2nc(SC(C)C(=O)N(Cc3ccc(F)cc3)c3ncc(Cl)cc3Cl)n(Cc3ccc(F)cc3)c2cc1C (stereo not shown) [Compound 157] | > 75 µM
CCOC(=O)c1ccc2[nH]c(SC(C)C(=O)Nc3ncc(Cl)cc3Cl)nc2c1 (stereo not shown) [Compound 158] | > 75 µM
COc1ccc(-n2c(CCC(=O)Nc3ccc(C)cc3Cl)nc3ccccc32)cc1 [Compound 159] | > 150 µM
COc1ccc(Cn2c(CCC(=O)Nc3ccc(Cl)cc3Cl)nc3ccccc32)cc1 [Compound 160] | > 75 µM
COc1ccc(-n2c(/C=C/C(=O)Nc3ccc(C)cc3Cl)nc3ccccc32)cc1 [Compound 161] | > 75 µM
Cc1ccc(NC(=O)/C=C/c2nc3ccccc3n2-c2ccccc2)c(Cl)c1 [Compound 162] | > 75 µM
Cc1ccc(NC(=O)c2ccccc2-c2nc3ccccc3n2-c2ccccc2)c(Cl)c1 [Compound 163] | > 50 µM
CCOC(=O)c1ccc2[nH]c(SC(C)C(=O)Nc3ncc(C)cc3Cl)nc2c1 (stereo not shown) [Compound 164] | > 75 µM
COc1ccc(-n2c([S+]([O-])CC(=O)Nc3ccc(C)cc3Cl)nc3ccccc32)cc1 (stereo not shown) [Compound 165] | 4.2 µM
Cc1cccc(-n2c(SC/C=C/c3ccccc3)nc3ccccc32)c1 [Compound 166] | > 10 µM
Cc1ccc(N(Cc2ccc(F)cc2)C(=O)C(C)Sc2nc(-c3ccccc3)c(-c3ccccc3)n2Cc2ccc(F)cc2)c(Cl)c1 (stereo not shown) [Compound 167] | > 75 µM
Cc1ccc(NC(=O)CSc2nc(-c3ccccc3)c(-c3ccccc3)n2Cc2ccc(F)cc2)c(Cl)c1 [Compound 168] | > 75 µM
Cc1ccc(NC(=O)CSc2nc3ccc(Br)cc3n2Cc2ccc(F)cc2)c(Cl)c1 [Compound 169] | > 75 µM
Cc1ccc(NC(=O)C(C)(C)Sc2nc3ccccc3n2-c2ccccc2)c(Cl)c1 [Compound 170] | > 75 µM
Cc1ccc(NC(=O)C(C)(C)[S+]([O-])c2nc3ccccc3n2-c2ccccc2)c(Cl)c1 (stereo not shown) [Compound 171] | > 75 µM
Cc1cccc(-n2c(SCCNc3ccccc3)nc3ccccc32)c1 [Compound 172] | > 75 µM
Cc1ccc(NC(=O)C(C)Sc2cc3ccccc3n2-c2ccccc2)c(Cl)c1 (stereo not shown) [Compound 173] | > 9.3 µM

Same assay, conditions: in our assays

SMILES | MeV inhibitory activity
O=C(CSc1nnc(Br)n1-c1ccc(C2CC2)c2ccccc12)Nc1ccc(C(=O)O)cc1Cl [RDEA-806, 4-(2-((5-bromo-4-(4-cyclopropylnaphthalen-1-yl)-4H-1,2,4-triazol-3-yl)thio)acetamido)-3-chlorobenzoic acid, reference compound] | lacks MeV inhibitory activity

— patent publication US9365523B2, “Imidazolyl amide compounds and uses related thereto” (priority 2011, dated 2016)
